Reference: patent US20230338391A1, “TREATMENT FOR DEPRESSION” (TAKEDA PHARMACEUTICAL COMPANY LIMITED, priority 2020, published 2023)
“Also recorded” adds a separate entry of the source. Like-named read-outs stand apart in the source and are kept apart here.

Experiments:
[1] = Phase 1 SRD/multiple-rising dose (MRD, Part 2) plasma PK in healthy subjects; format: in vivo, human; conditions: for Vd/F: read-out: Vz/F
Protocol: The study was designed to assess the safety, tolerability, PK, and PD of COMPOUND A. A total of 88 subjects were enrolled in 6 SRD and 5 SRD/MRD cohorts (n=8 per cohort). The study was composed of 2 parts.
In Part 2 of the study (SRD/MRD cohorts), a single oral tablet dose of COMPOUND A (0.3, 1, 3, 6, or 9 mg) or matching placebo was administered on Day 1 followed by safety, tolerability, PK, and PD assessments. Study drug (at the same dose level) was then administered once daily (QD) for 13 days, on […]. Each cohort of 8 subjects (6 active: 2 placebo) were administered study drug sequentially to ensure adequate safety and tolerability before administering the next dose level. Neither sentinel nor staggered dosing was used for the SRD/MRD cohorts. Subjects were confined in the study unit for 21 days, from Check-in on Day −1 until 72 hours after the last dose of study drug.
For all cohorts in Parts 1 and 2, serial PK blood samples were collected pre- and post-dose on Day 1 to measure plasma concentrations of COMPOUND A and its metabolites. For all SRD/MRD cohorts in Part 2, urine samples were collected pre- and post-dose on Day 1 and post-dose on Day 18 to measure concentrations of COMPOUND A and its metabolites.
For Part 1 of the study, all 36 subjects who received COMPOUND A were included in the PK set. For Part 2 of the study, all 30 subjects who received COMPOUND A were included in the PK set.
Referring now to FIG. 3, mean plasma concentration-time profiles (linear and semilog scales) of COMPOUND A were determined on Day 18 following oral administration of COMPOUND A QD for 13 days.

CNS excitability = assay: TMS crossover study of CNS PD activity in healthy subjects
[2] = 0.3 mg QD cohort, Study Day 1, mean
[3] = 1 mg QD cohort, Study Day 1, mean
[4] = 3 mg QD cohort, Study Day 1, mean
[5] = 6 mg QD cohort, Study Day 1, mean
[6] = 9 mg QD cohort, Study Day 1, mean
[7] = both sexes, human, plasma, oral, 0.3 mg QD cohort, Study Day 1, mean
[8] = both sexes, human, plasma, oral, 1 mg QD cohort, Study Day 1, mean
[9] = both sexes, human, plasma, oral, 3 mg QD cohort, Study Day 1, mean
[10] = both sexes, human, plasma, oral, 6 mg QD cohort, Study Day 1, mean
[11] = both sexes, human, plasma, oral, 9 mg QD cohort, Study Day 1, mean
[12] = 0.5 mg and 6 mg single oral doses

## CC1=CN2CCS(=O)(=O)N=C2C(c2ccc(OC3CCCCC3)cc2)=N1 [COMPOUND A, 9-[4-(Cyclohexyloxy)phenyl]-7-methyl-3,4-dihydropyrazino[2,1-c][1,2,4]thiadiazine 2,2-dioxide]
[1]; [2]
  CL/F: 2.38 L/h
  t1/2z: 37.1 h
[1]; 0.3 mg QD, Study Day 18, mean
  Cav, ss: 6.27 ng/mL
[1]; [3]
  CL/F: 2.35 L/h
  t1/2z: 42.4 h
[1]; 1 mg QD, Study Day 18, mean
  Cav, ss: 20.9 ng/mL
[1]; [4]
  CL/F: 1.81 L/h
  t1/2z: 52.6 h
[1]; 3 mg QD, Study Day 18, mean
  Cav, ss: 81.1 ng/mL
[1]; [5]
  CL/F: 3.25 L/h
  t1/2z: 36.0 h
[1]; 6 mg QD, Study Day 18, mean, n = 5
  Cav, ss: 122 ng/mL
[1]; [6]
  CL/F: 2.17 L/h
  t1/2z: 49.9 h
[1]; 9 mg QD, Study Day 18, mean
  Cav, ss: 192 ng/mL
[1]; both sexes, human, plasma, oral, 0.3 mg, 0.3 mg QD cohort, Study Day 1, mean, read-out: AUC24
  AUC: 48 ng·h/mL
[1]; both sexes, human, plasma, oral, 0.3 mg, 0.3 mg QD cohort, Study Day 1, mean, read-out: Cmax
  Cmax: 2.93 ng/mL
[1]; both sexes, human, plasma, oral, 0.3 mg, 0.3 mg QD cohort, Study Day 1, median, read-out: tmax
  Tmax: 1.25 h
[1]; both sexes, human, plasma, oral, 0.3 mg, 0.3 mg QD, Study Day 6, mean, read-out: AUC24
  AUC: 51.8 ng·h/mL
[1]; both sexes, human, plasma, oral, 0.3 mg, 0.3 mg QD, Study Day 6, mean, read-out: Cmax
  Cmax: 3.07 ng/mL
[1]; both sexes, human, plasma, oral, 0.3 mg, 0.3 mg QD, Study Day 6, median, read-out: tmax
  Tmax: 1.5 h
[1]; both sexes, human, plasma, oral, 0.3 mg, 0.3 mg QD, Study Day 18, mean, read-out: AUCτ
  AUC: 151 ng·h/mL
[1]; both sexes, human, plasma, oral, 0.3 mg, 0.3 mg QD, Study Day 18, mean, read-out: Cmax, ss
  Cmax: 7.87 ng/mL
[1]; both sexes, human, plasma, oral, 0.3 mg, 0.3 mg QD, Study Day 18, median, read-out: tmax
  Tmax: 2.5 h
[1]; both sexes, human, plasma, oral, 1 mg, 1 mg QD cohort, Study Day 1, mean, read-out: AUC24
  AUC: 138 ng·h/mL
[1]; both sexes, human, plasma, oral, 1 mg, 1 mg QD cohort, Study Day 1, mean, read-out: Cmax
  Cmax: 7.82 ng/mL
[1]; both sexes, human, plasma, oral, 1 mg, 1 mg QD cohort, Study Day 1, median, read-out: tmax
  Tmax: 4 h
[1]; both sexes, human, plasma, oral, 1 mg, 1 mg QD, Study Day 6, mean, read-out: AUC24
  AUC: 162 ng·h/mL
[1]; both sexes, human, plasma, oral, 1 mg, 1 mg QD, Study Day 6, mean, read-out: Cmax
  Cmax: 10 ng/mL
[1]; both sexes, human, plasma, oral, 1 mg, 1 mg QD, Study Day 6, median, read-out: tmax
  Tmax: 1 h
[1]; both sexes, human, plasma, oral, 1 mg, 1 mg QD, Study Day 18, mean, read-out: AUCτ
  AUC: 503 ng·h/mL
[1]; both sexes, human, plasma, oral, 1 mg, 1 mg QD, Study Day 18, mean, read-out: Cmax, ss
  Cmax: 24.9 ng/mL
[1]; both sexes, human, plasma, oral, 1 mg, 1 mg QD, Study Day 18, median, read-out: tmax
  Tmax: 4.5 h
[1]; both sexes, human, plasma, oral, 3 mg, 3 mg QD cohort, Study Day 1, mean, read-out: AUC24
  AUC: 480 ng·h/mL
[1]; both sexes, human, plasma, oral, 3 mg, 3 mg QD cohort, Study Day 1, mean, read-out: Cmax
  Cmax: 28.7 ng/mL
[1]; both sexes, human, plasma, oral, 3 mg, 3 mg QD cohort, Study Day 1, median, read-out: tmax
  Tmax: 1.5 h
[1]; both sexes, human, plasma, oral, 3 mg, 3 mg QD, Study Day 6, mean, read-out: AUC24
  AUC: 594 ng·h/mL
[1]; both sexes, human, plasma, oral, 3 mg, 3 mg QD, Study Day 6, mean, read-out: Cmax
  Cmax: 34.7 ng/mL
[1]; both sexes, human, plasma, oral, 3 mg, 3 mg QD, Study Day 6, median, read-out: tmax
  Tmax: 1.54 h
[1]; both sexes, human, plasma, oral, 3 mg, 3 mg QD, Study Day 18, mean, read-out: AUCτ
  AUC: 1950 ng·h/mL
[1]; both sexes, human, plasma, oral, 3 mg, 3 mg QD, Study Day 18, mean, read-out: Cmax, ss
  Cmax: 100 ng/mL
[1]; both sexes, human, plasma, oral, 3 mg, 3 mg QD, Study Day 18, median, read-out: tmax
  Tmax: 4 h
[1]; both sexes, human, plasma, oral, 6 mg, 6 mg QD cohort, Study Day 1, mean, read-out: AUC24
  AUC: 767 ng·h/mL
[1]; both sexes, human, plasma, oral, 6 mg, 6 mg QD cohort, Study Day 1, mean, read-out: Cmax
  Cmax: 42 ng/mL
[1]; both sexes, human, plasma, oral, 6 mg, 6 mg QD cohort, Study Day 1, median, read-out: tmax
  Tmax: 5 h
[1]; both sexes, human, plasma, oral, 6 mg, 6 mg QD, Study Day 6, mean, n = 5, read-out: AUC24
  AUC: 784 ng·h/mL
[1]; both sexes, human, plasma, oral, 6 mg, 6 mg QD, Study Day 6, mean, read-out: Cmax
  Cmax: 50.2 ng/mL
[1]; both sexes, human, plasma, oral, 6 mg, 6 mg QD, Study Day 6, median, read-out: tmax
  Tmax: 5 h
[1]; both sexes, human, plasma, oral, 6 mg, 6 mg QD, Study Day 18, mean, n = 5, read-out: AUCτ
  AUC: 2930 ng·h/mL
[1]; both sexes, human, plasma, oral, 6 mg, 6 mg QD, Study Day 18, mean, n = 5, read-out: Cmax, ss
  Cmax: 148 ng/mL
[1]; both sexes, human, plasma, oral, 6 mg, 6 mg QD, Study Day 18, median, n = 5, read-out: tmax
  Tmax: 3.05 h
[1]; both sexes, human, plasma, oral, 9 mg, 9 mg QD cohort, Study Day 1, mean, read-out: AUC24
  AUC: 1410 ng·h/mL
[1]; both sexes, human, plasma, oral, 9 mg, 9 mg QD cohort, Study Day 1, mean, read-out: Cmax
  Cmax: 78.4 ng/mL
[1]; both sexes, human, plasma, oral, 9 mg, 9 mg QD cohort, Study Day 1, median, read-out: tmax
  Tmax: 4.51 h
[1]; both sexes, human, plasma, oral, 9 mg, 9 mg QD, Study Day 6, mean, read-out: AUC24
  AUC: 1570 ng·h/mL
[1]; both sexes, human, plasma, oral, 9 mg, 9 mg QD, Study Day 6, mean, read-out: Cmax
  Cmax: 82 ng/mL
[1]; both sexes, human, plasma, oral, 9 mg, 9 mg QD, Study Day 6, median, read-out: tmax
  Tmax: 4 h
[1]; both sexes, human, plasma, oral, 9 mg, 9 mg QD, Study Day 18, mean, read-out: AUCτ
  AUC: 4600 ng·h/mL
[1]; both sexes, human, plasma, oral, 9 mg, 9 mg QD, Study Day 18, mean, read-out: Cmax, ss
  Cmax: 243 ng/mL
[1]; both sexes, human, plasma, oral, 9 mg, 9 mg QD, Study Day 18, median, read-out: tmax
  Tmax: 3 h
[1]; both sexes, human, plasma, oral, Day 18, range over the 0.3 to 9 mg QD dose range, read-out: mean AUCτ
  AUC: 151 to 4600 ng·h/mL
[1]; both sexes, human, plasma, oral, Day 18, range over the 0.3 to 9 mg QD dose range, read-out: mean Cav,ss
  concentration at 18 day: 6.27 to 192 ng/mL
[1]; both sexes, human, plasma, oral, Day 18, range over the 0.3 to 9 mg QD dose range, read-out: mean plasma Cmax,ss
  Cmax: 7.86 to 243 ng/mL
[1]; [7]
  AUC(0-inf): 133 ng·h/mL
  AUC(0-t): 118 ng·h/mL
  Vd/F: 121 L
[1]; [8]
  AUC(0-inf): 470 ng·h/mL
  AUC(0-t): 394 ng·h/mL
  Vd/F: 133 L
[1]; [9]
  AUC(0-inf): 1870 ng·h/mL
  AUC(0-t): 1470 ng·h/mL
  Vd/F: 126 L
[1]; [10]
  AUC(0-inf): 2330 ng·h/mL
  AUC(0-t): 1960 ng·h/mL
  Vd/F: 145 L
[1]; [11]
  AUC(0-inf): 5760 ng·h/mL
  AUC(0-t): 4430 ng·h/mL
  Vd/F: 119 L
[1]; both sexes, human, plasma, po, 9 mg, oral QD 0.3, 1, 3, 6, 9 mg, range over the dose range, read-out: median tmax
  Tmax: 2.5 to 4 h
[1]; oral QD 0.3-9 mg from Day 6
  attainment of steady-state: appeared to reach steady-state on Day 18
CNS excitability; [12]
  SICI measurements and other secondary endpoints: not statistically significant
  changes from baseline in the rMT, single-pulse TMS: not statistically significant
CNS excitability; 0.5 mg single oral dose, 2.5 hours post-dose
  change from baseline of LICI 300 ms: statistically significant PD effect
CNS excitability; 6 mg single oral dose, 2.5 hours post-dose, stimulation intensity 120% of baseline rMT
  peak-to-peak amplitude of the MEP, single-pulse TMS, change from baseline vs placebo: statistically significant difference from baseline when compared with placebo; also recorded: statistically significant PD effect
